Measured values: patent US20250082656A1, “DOSAGE REGIMENS FOR TREATMENT OF DENGUE INFECTION” (Atea Pharmaceuticals, Inc., priority 2022, published 2025)

How the values were obtained:
[1] = Cytotoxicity in uninfected Huh-7 cells; settings: human, Huh-7 cells, uninfected
Huh-7 cells = assay: Cytotoxicity in uninfected Huh-7 cells; settings: Table 1A, Huh-7 incubated without virus, parallel to the virus of the line; highest concentration tested
Dengue serotype 4 = assay: In vitro antiviral potency, summary over strains, Dengue serotype 4; format: cell-based; settings: Dengue virus
[2] = test system: Respiratory syncytial virus; assay: Antiviral specificity panel, RSV; format: cell-based; settings: human respiratory syncytial virus, HEp-2; RNA virus, HEp2
[3] = Bone marrow progenitor cell assay, granulocyte macrophage (GM); settings: human
Dengue-3 (DENV-3) = assay: Neutral red assay of virus-induced CPE, DENV-3; format: cell-based; settings: DENV3, Huh-7
[4] = In vivo formation of AT-9010 in PBMCs, rats; parameters: species or system SD rats; settings: single oral dose 300 mg/kg, 24 h
Experimental: Monkeys were given an oral dose of Compound 2 (AT-752) equivalent to Compound 1 (AT-281) at 55 mg/kg and blood collected at 12, 24 and 48 h. […] Mouse PBMCs were pooled from 3 animals per time point; Rat and monkey data expressed as mean+/−SD (n=2-3 per time point). […] The experimental procedure is provided in Example 15.
Male naïve SD rats (Beijing Vital River Laboratory Animals Co. Ltd., China) were administered a dose of AT-752 at 300 mg/kg in 40% PEG400, 10% solutol HS15, 50% 100 mM citrate buffer, pH 4.5 (v/v) by oral gavage. Blood samples (n=4) were collected at 1, 2, 4, 8, 12 and 24 h post-dose, plasma separated and stored at −70° C. […] For PBMCs, nine male naïve SD rats were administered a dose of Compound 2 (AT-752) (at a Compound 1 (AT-281) equivalent dose of 300 mg/kg) by oral gavage.
Pharmacokinetic measurements for FIGS. 11, 12, 13, 14, and 15 were analyzed using LC-MS/MS according to the protocol described herein. Plasma samples were prepared for MS analysis by adding internal standards and extracting with 20 volumes chilled ACN. After vortex (800 rpm for 10 min) and centrifugation (4,000 rpm, 15 min, 4° C.), the supernatants (25 μL) were diluted with an equal volume of H2O, mixed and spun again. […]

[5] = target: human cellular DNA-dependent DNA polymerase β (Homo sapiens, UniProt P06746); settings: previously shown (Good et al.); read-out: estimated IC50; cited from earlier work
DENV2 NS5 = DENV2 NS5 (Dengue virus type 2, UniProt P14340); assay: Nucleotide analogue incorporation / discrimination assay, DENV2 NS5; format: biochemical
Experimental: The chain-terminating efficiency of Compound 5 was measured in competitive nucleotide incorporation assays using all four DENV serotypes. […] In comparison, sofosbuvir triphosphate is incorporated into the RNA less than 1 time for every 100 UTP (native uridine triphosphate) incorporations.
The experimental procedure is provided in Example 10.
Measurements and quantitations were as in FIG. 19B.
DENV NS5 was preincubated with the annealed P10/T20 RNA in an assembly buffer containing 20 mM HEPES pH 7.5, 10% glycerol, 5 mM MgCl2 and 5 mM DTT for 10 min at 30° C. to create an active RNA elongation complex. Reactions were started by adding AT-9010 with either all four NTPs, or UTP, ATP and CTP only. […] Reactions were quenched at indicated timepoints in 2× volume FBD stop solution (formamide, 10 mM EDTA) and analysed on 20% acrylamide:bisacrylamide (19:1), […] sequencing gels. RNA products were visualized using a Typhoon FluorImager and analyzed using ImageQuant software.
DENV NS5 was pre-incubated with the annealed P10/T20 RNA in an assembly buffer containing 20 mM HEPES pH 7.5, 10% glycerol, 5 mM MgCl2, and 5 mM DTT for 10 min at 30° C. to create an active RNA elongation complex.
Reactions were started by adding AT-9010 with either all four NTPs or UTP, ATP, and CTP only.
Single nucleotide incorporation was tested as follows. Reactions were started by adding the corresponding NTP or analogue. Final concentrations were 1 μM NS5, 0.25 μM P10/T20, 100 μM NTP or analogue in a final buffer containing 20 mM HEPES pH 7.5, 15% glycerol, 5 mM MgCl2, and 5 mM DTT.
Reactions were quenched at the designated time points in 3× volume FBD stop solution (formamide, 10 mM EDTA) and analyzed on 20% acrylamide-bisacrylamide (19:1) […] sequencing gels. RNA products were visualized using a Typhoon FluorImager then analyzed and quantified using ImageQuant software.

`CNc1nc(N)nc2c1ncn2[C@@H]1O[C@H](CO[P@](=O)(N[C@@H](C)C(=O)OC(C)C)Oc2ccccc2)[C@@H](O)[C@@]1(C)F` [Compound 1, isopropyl ((R)-(((2R,3R,4R,5R)-5-(2-amino-6-(methylamino)-9H-purin-9-yl)-4-fluoro-3-hydroxy-4-methyltetrahydrofuran-2-yl)methoxy)(phenoxy)phosphoryl)-L-alaninate] gave an SI (flaviviruses; DENV-2 NGC Huh-7, DENV2 clinical isolate PBMC and BHK-21, DENV-3 H87 Huh-7, in each case) greater than 210, a CC50 (flaviviruses; read-out: CC50 (concentration required to kill 50% of cells exposed to drug only), exceeded the highest concentration tested) of 85 to 170 µM and a CC50 [1] greater than 100 µM. For the same compound, the CC50 (Huh-7 cells) was greater than 170 µM, the EC50 (Dengue serotype 4) was less than 1.2 µM and the EC50 [2] was greater than 100 µM. It also gave a CC50 at 14 days [3] greater than 100 µM and an EC50 (Dengue-3 (DENV-3)) of 0.77 µM.
In the case of `C[C@@]1(F)[C@H](O)[C@@H](COP(=O)(O)OP(=O)(O)OP(=O)(O)O)O[C@H]1n1cnc2c(=O)[nH]c(N)nc21` [Compound 5], the “concentration of AT-9010 in PBMCs” value [4] is listed as 0.439±0.218 pmol/10^6 cells, the IC50 [5] is listed as greater than 100 µM and the “Preference (discrimination) native nucleotide > analogue” value (DENV2 NS5; DENV2, GTP for AT-9010 and AT-9002, UTP for SOF-TP) is listed as 9.3 ± 0.1. For the same compound, the “discrimination factor (preference for GTP>Compound 5)” value (DENV2 NS5; DENV-2 NS5, all four NTPs, band product intensities) was 12.6±4.3 and the “effect on RNA synthesis after incorporation” value (DENV2 NS5; absence of GTP, next correct nucleotide (UTP) present) was “immediate chain-termination of RNA synthesis”.
